Assay results as given in patent US9656962B2, “Ring-contracted morphinans and the use thereof” (Purdue Pharma L.P., priority 2013, dated 2017).

Tests used:
Type in all cases: biochemical
μ-opioid receptor [1] = target: T1, μ-opioid receptor (Homo sapiens (Human), UniProt P35372); test: μ-opioid receptor [35S]GTPγS functional assay, U-2 OS cells (Table 5); settings: for Emax: relative to DAMGO; for EC50: μ GTP
Procedure: (§1) μ-Opioid Receptor Functional Assay Procedures: [^35S]GTPγS functional assays were conducted using freshly thawed μ-receptor membranes prepared in-house from a cell line expressing recombinant μ opioid receptor in a HEK-293, CHO or U-2 OS cell background, or purchased from a commercial source (Perkin Elmer, Shelton, Conn.; or DiscovRx, Fremont, Calif.). Assay reactions were prepared by sequentially adding the following reagents to binding buffer (100 mM NaCl, 10 mM MgCl2, 20 mM HEPES, pH 7.4) on ice (final concentrations indicated): membrane protein (0.026 mg/mL), saponin ([…]), GDP ([…]) and [^35S]GTPγS (0.20 nM; Perkin Elmer, Shelton, Conn.). The prepared membrane solution (190 μl/well) was transferred to 96-shallow well polypropylene plates containing 10 μl of 20× concentrated stock solutions of the agonist [D-Ala^2, N-methyl-Phe^4 Gly-ol^5]-enkephalin (DAMGO) prepared in dimethyl sulfoxide (DMSO). Plates were incubated for 30 min at about 25° C. with shaking Reactions were terminated by rapid filtration onto 96-well Unifilter GF/B filter plates (Perkin Elmer, Shelton, Conn.) using a 96-well tissue harvester (Perkin Elmer, Shelton, Conn.) followed by three filtration washes with 200 μl of ice-cold wash buffer (10 mM NaH2PO4, 10 mM Na2HPO4, pH 7.4). Filter plates were subsequently dried at 50° C. for 2-3 hours. BetaScint scintillation cocktail (Perkin Elmer, Shelton, Conn.) was added (50 μl/well) and plates were counted using a Packard Top-Count for 1 min/well. Data were analyzed using the sigmoidal dose-response curve fitting functions in GraphPad PRISM v. 3.0, or an in-house function for non-linear, sigmoidal dose-response curve-fitting. [^35S]GTPγS functional assays can also be conducted using freshly thawed μ-receptor membranes prepared from a cell line expressing recombinant μ opioid receptor in a CHO-K1 cell background.
μ GTP Emax (%) is the maximal effect elicited by a compound relative to the effect elicited by DAMGO, a standard μ agonist.

κ-opioid receptor = κ-opioid receptor (Homo sapiens (Human), UniProt P41145); test: κ-opioid receptor [35S]GTPγS functional assay, U-2 OS cells (Table 5); settings: for Emax: relative to U69,593; for EC50: κ GTP
Procedure: κ-Opioid Receptor Functional Assay Procedures: Functional [^35S]GTPγS binding assays were conducted as follows. κ opioid receptor membrane solution was prepared by sequentially adding final concentrations of 0.026 μg/μl κ membrane protein (in-house), 10 μg/mL saponin, 3 μM GDP and 0.20 nM [^35S]GTPγS to binding buffer (100 mM NaCl, 10 mM MgCl2, 20 mM HEPES, pH 7.4) on ice. The prepared membrane solution (190 μl/well) was transferred to 96-shallow well polypropylene plates containing 10 μl of 20× concentrated stock solutions of agonist prepared in DMSO. Plates were incubated for 30 min at a temperature of about 25° C. with shaking. Reactions were terminated by rapid filtration onto 96-well Unifilter GF/B filter plates (Perkin Elmer, Shelton, Conn.) using a 96-well tissue harvester (Packard) and followed by three filtration washes with 200 μl ice-cold binding buffer (10 mM NaH2PO4, 10 mM Na2HPO4, pH 7.4). Filter plates were subsequently dried at 50° C. for 2-3 hours. Fifty μl/well scintillation cocktail (Perkin Elmer, Shelton, Conn.) was added and plates were counted in a Packard Top-Count for 1 min/well.
κ GTP Emax (%) is the maximal effect elicited by a compound relative to the effect elicited by U69,593.
The following TABLE 5 provides results on the activity response of certain Compounds of the Invention at the μ- and κ-opioid receptors determined as described above using U-2 OS cells.

μ-opioid receptor [2] = target: T1, μ-opioid receptor; test: μ-opioid receptor [35S]GTPγS functional assay, HEK-293 cells (Table 6); settings: for Emax: relative to DAMGO; for EC50: μ GTP
Procedure: as §1
μ GTP Emax (%) is the maximal effect elicited by a compound relative to the effect elicited by DAMGO, a standard μ agonist. Generally, the μ GTP Emax (%) value measures the efficacy of a compound to treat or prevent pain or other Conditions.
The following TABLE 6 provides results on the activity response of certain Compounds of the Invention at the μ- and κ-opioid receptors determined as described above using HEK-293 cells.

Row | SMILES | Emax (μ-opioid receptor [2]) | EC50 (μ-opioid receptor [2]) | EC50 (μ-opioid receptor [2]; bound given in μM) | further results
1 | COc1ccc2c(c1)[C@]13CCN(CC4CC4)[C@H](C2)[C@]1(O)C[C@@H](C#N)C3 [Compound 26, (2S,3aS,4R,9bS)-12-(cyclopropylmethyl)-3a-hydroxy-8-methoxy-1,2,3,3a,4,5-hexahydro-4,9b-(epiminoethano)-cyclopenta[a]naphthalene-2-carbonitrile] |  |  |  | Emax (μ-opioid receptor [1]): 63 ± 5.77%; EC50 (μ-opioid receptor [1]): 1130 ± 117 nM; Emax (κ-opioid receptor): 106 ± 2.03%; EC50 (κ-opioid receptor): 829 ± 100 nM
2 | COc1ccc2c(c1)[C@]13CCN(CC4CC4)[C@H](C2)[C@]1(O)C[C@@H](C(=O)N1CCCC1)C3 [Compound 20, ((2S,3aS,4R,9bS)-12-(cyclopropylmethyl)-3a-hydroxy-8-methoxy-1,2,3,3a,4,5-hexahydro-4,9b-(epiminoethano)cyclo-penta[a]naphthalene-2-yl)(pyrrolidin-1-yl)methanone] |  |  |  | Emax (μ-opioid receptor [1]): 43.3 ± 2.4%; EC50 (μ-opioid receptor [1]): 1230 ± 83.5 nM; Emax (κ-opioid receptor): 87.7 ± 4.33%; EC50 (κ-opioid receptor): 4400 ± 357 nM
3 | CN1CC[C@]23C[C@@H](C(=O)NCc4ccc(Cl)c(Cl)c4)C[C@@]2(O)[C@H]1Cc1ccc(O)cc13 [Compound 99, (2R,3aS,4R,9bS)-N-(3,4-dichlorobenzyl)-3a,8-dihydroxy-12-methyl-1,2,3,3a,4,5-hexahydro-4,9b-(epiminoethano)-cyclopenta[a]naphthalene-2-carboxamide] | 73.3 ± 1.2% | 0.244 ± 0.0295 µM |  | 
4 | CC(C)N1CCN(C(=O)[C@@H]2C[C@]34CCN(CC5CC5)[C@H](Cc5ccc(O)cc53)[C@]4(O)C2)CC1 [Compound 132, ((2R,3aS,4R,9bS)-12-(cyclopropylmethyl)-3a,8-dihydroxy-1,2,3,3a,4,5-hexahydro-4,9b-(epiminoethano)cyclopenta-[a]naphthalen-2-yl)(4-isopropylpiperazin-1-yl)methanone] | -1% |  | > 20 µM | 
5 | O=C(NCCc1ccc(Cl)cc1)[C@@H]1C[C@]23CCN(CC4CC4)[C@H](Cc4ccc(O)cc42)[C@]3(O)C1 [Compound 129, (2R,3aS,4R,9bS)-N-(4-chlorophenethyl)-12-(cyclopropylmethyl)-3a,8-dihydroxy-1,2,3,3a,4,5-hexahydro-4,9b-(epimino-ethano)cyclopenta[a]naphthalene-2-carboxamide] | 1% |  | > 20 µM | 
6 | O=C(NCc1cc(F)cc(F)c1)[C@H]1C[C@]23CCN(CC4CC4)[C@H](Cc4ccc(O)cc42)[C@]3(O)C1 [Compound 143, (2S,3aS,4R,9bS)-12-(cyclopropylmethyl)-N-(3,5-difluorobenzyl)-3a,8-dihydroxy-1,2,3,3a,4,5-hexahydro-4,9b-(epimino-ethano)cyclopenta[a]naphthalene-2-carboxamide] | 39.9 ± 1.01% | 0.00209 ± 0.00045 µM |  | 
7 | Cc1ccc(CNC(=O)[C@@H]2C[C@]34CCN(CC5CC5)[C@H](Cc5ccc(C#N)cc53)[C@]4(O)C2)cc1 [Compound 120, (2R,3aS,4R,9bS)-8-cyano-12-(cyclopropylmethyl)-3a-hydroxy-N-(4-methylbenzyl)-1,2,3,3a,4,5-hexahydro-4,9b-(epiminoethano)cyclopenta-[a]naphthalene-2-carboxamide] | 22.7 ± 1.92% | 0.631 ± 0.152 µM |  | 
8 | O=C(NCc1cccc(O)c1O)[C@H]1C[C@]23CCN(CC4CC4)[C@H](Cc4ccc(O)cc42)[C@]3(O)C1 [Compound 141, (2S,3aS,4R,9bS)-12-(cyclopropylmethyl)-N-(2,3-dihydroxybenzyl)-3a,8-dihydroxy-1,2,3,3a,4,5-hexabydro-4,9b-(epimino-ethano)cyclopenta[a]naphthalene-2-carboxamide] | 47.4 ± 0.83% | 0.00117 ± 0.0001 µM |  | 
9 | N#Cc1ccc2c(c1)[C@]13CCN(CC4CC4)[C@H](C2)[C@]1(O)C[C@H](C(=O)NCCN1CCOCC1)C3 [Compound 122, (2R,3aS,4R,9bS)-8-cyano-12-(cyclopropylmethyl)-3a-hydroxy-N-(2-morpholinoethyl)-1,2,3,3a,4,5-hexahydro-4,9b-(epiminoethano)cyclopenta-[a]naphthalene-2-carboxamide] | 0.33 ± 0.67% |  | > 20 µM | 
10 | O=C(NCCc1ccc(Cl)cc1Cl)[C@@H]1C[C@]23CCN(CC4CC4)[C@H](Cc4ccc(O)cc42)[C@]3(O)C1 [Compound 130, (2R,3aS,4R,9bS)-12-(cyclopropylmethyl)-N-(2,4-dichlorophenethyl)-3a,8-dihydroxy-1,2,3,3a,4,5-hexahydro-4,9b-(epiminoethano)cyclopenta[a]naphthalene-2-carboxamide] | 0% |  | > 20 µM | 
11 | Cc1ccc(CNC(=O)[C@H]2C[C@]34CCN(CC5CC5)[C@H](Cc5ccc(O)cc53)[C@]4(O)C2)cc1Cl [Compound 137, (2S,3aS,4R,9bS)-N-(3-chloro-4-methylbenzyl)-12-(cyclopropylmethyl)-3a,8-dihydroxy-1,2,3,3a,4,5-hexahydro-4,9b-(epiminoethano)cyclopenta-[a]naphthalene-2-carboxamide] | 55.5 ± 0.31% | 0.00045 ± 6.1e-05 µM |  | 
12 | Cc1ccc(CNC(=O)[C@H]2C[C@]34CCN(CC5CC5)[C@H](Cc5ccc(C#N)cc53)[C@]4(O)C2)cc1 [Compound 121, (2S,3aS,4R,9bS)-8-cyano-12-(cyclopropylmethyl)-3a-hydroxy-N-(4-methylbenzyl)-1,2,3,3a,4,5-hexahydro-4,9b-(epiminoethano)cyclopenta-[a]naphthalene-2-carboxamide] | 29.3 ± 1.78% | 1.09 ± 0.0702 µM |  | 
13 | N#Cc1ccc2c(c1)[C@]13CCN(CC4CC4)[C@H](C2)[C@]1(O)C[C@@H](C(=O)NCCN1CCOCC1)C3 [Compound 123, (2S,3aS,4R,9bS)-8-cyano-12-(cyclopropylmethyl)-3a-hydroxy-N-(2-morpholinoethyl)-1,2,3,3a,4,5-hexahydro-4,9b-(epiminoethano)cyclopenta-[a]naphthalene-2-carboxamide] | 10.5 ± 1.07% | 2.92 ± 0.378 µM |  | 
14 | Cc1c(Cl)cccc1CNC(=O)[C@@H]1C[C@]23CCN(CC4CC4)[C@H](Cc4ccc(O)cc42)[C@]3(O)C1 [Compound 125, (2R,3aS,4R,9bS)-N-(3-chloro-2-methylbenzyl)-12-(cyclopropylmethyl)-3a,8-dihydroxy-1,2,3,3a,4,5-hexahydro-4,9b-(epiminoethano)cyclopenta-[a]naphthalene-2-carboxamide] | -1% |  | > 20 µM | 
15 | Cc1ccc(CNC(=O)[C@@H]2C[C@]34CCN(CC5CC5)[C@H](Cc5ccc(O)cc53)[C@]4(O)C2)cc1Cl [Compound 126, (2R,3aS,4R,9bS)-N-(3-chloro-4-methylbenzyl)-12-(cyclopropylmethyl)-3a,8-dihydroxy-1,2,3,3a,4,5-hexahydro-4,9b-(epiminoethano)cyclopenta-[a]naphthalene-2-carboxamide] | -1% |  | > 20 µM | 
16 | NC(=O)c1ccc2c(c1)[C@]13CCN(CC4CC4)[C@H](C2)[C@]1(O)C[C@@H](C(=O)NCCN1CCOCC1)C3 [Compound 119, (2S,3aS,4R,9bS)-12-(cyclopropylmethyl)-3a-hydroxy-N^2-(2-morpholinoethyl)-1,2,3,3a,4,5-hexahydro-4,9b-(epimino-ethano)cyclopenta[a]naphthalene-2,8-dicarboxamide] | 18.4 ± 1.55% | 0.0134 ± 0.00419 µM |  | 
17 | CN(C)CCN(C)C(=O)[C@@H]1C[C@]23CCN(C)[C@H](Cc4ccc(O)cc42)[C@]3(O)C1 [Compound 113, (2R,3aS,4R,9bS)-N-(2-(dimethylamino)-ethyl)-3a,8-dihydroxy-N,12-dimethyl-1,2,3,3a,4,5-hexahydro-4,9b-(epimino-ethano)cyclopenta[a]naphthalene-2-carboxamide] | -1% |  | > 20 µM | 
